Assay results reported in US9120779B2, “Inhibitors of HCV NS5A” (PRESIDIO PHARMACEUTICALS, INC., priority 2008, dated 2015).

These compounds were tested on HCV genotype 1b replicon in Huh 7 cells (assay: HCV replicon assay (luciferase readout, 1b_Huh-Luc/Neo-ET cell line)). Conditions: Hepatitis C virus, Huh-7, 72 h, read-out: Inhibition of HCV genotype 1b, Table 1, 72 h incubation.
Assay type: cell-based
Method in brief: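 Inhibition expressed as percent of untreated control luciferase signal and fitted to a Hill-slope equation for EC50, with repeat determinations. Compounds were added in triplicate to Huh 7 cells stably expressing the genotype 1b luciferase replicon, with 72 h exposure.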
With COC(=O)N[C@@H](C(=O)N1CCC[C@H]1c1ncc(-c2ccc(C3CCC(c4cnc([C@@H]5CCCN5C(=O)[C@@H](c5ccccc5)N(C)C)[nH]4)CC3)cc2)[nH]1)c1ccccc1 (stereo partly drawn) [compound 376] the EC50 was under 1 nM. CC(C)[C@H](NC(=O)N1CCOCC1)C(=O)N1CCC[C@H]1c1ncc(-c2ccc([C@H]3CC[C@@H](c4cnc([C@@H]5CCCN5C(=O)[C@@H](NC(=O)N5CCOCC5)C(C)C)[nH]4)CC3)cc2)[nH]1 [compound 386] showed an EC50 of 10 to 999 nM. O=C(N[C@H]1CC[C@@H](c2cccc(-c3cnc([C@@H]4CCCN4C(=O)[C@H](NC(=O)N4CCOCC4)c4ccccc4)[nH]3)c2)CC1)[C@@H]1CCCN1C(=O)[C@H](NC(=O)N1CCOCC1)c1ccccc1 [compound 365] showed an EC50 of 1 to 9.9 nM. CC(C)(C)OC(=O)N[C@@H](C(=O)N1CCC[C@H]1C(=O)NC1CCC(c2ccc(-c3cnc([C@@H]4COCCN4C(=O)[C@H](NC(=O)OC(C)(C)C)c4ccccc4)[nH]3)cc2)CC1)c1ccccc1 (stereo partly drawn) [compound 368] gave an EC50 of under 1 nM. Work on COC(=O)N[C@H](C(=O)N1CCC[C@H]1c1ncc(-c2ccc(C3CCC(c4cnc([C@@H]5CCCN5C(=O)[C@@H](NC(=O)OC)c5ccccc5)[nH]4)CC3)cc2)[nH]1)c1ccccc1 (stereo partly drawn) [compound 374] yielded an EC50 of under 1 nM.

Same assay, conditions: Hepatitis C virus, Huh-7, 72 h, read-out: Inhibition of HCV genotype 1b, Table 2, 72 h incubation
Compound COC(=O)N[C@H](C(=O)N1CCC[C@H]1c1ncc(-c2ccc(-c3ccc4nc([C@@H]5CCCN5C(=O)[C@@H](NC(=O)OC)[C@@H](C)OC)[nH]c4c3)cc2)[nH]1)[C@@H](C)OC [compound 402] has an EC50 of under 1 nM.

Same assay, conditions: Hepatitis C virus, Huh-7, 72 h, read-out: Inhibition of HCV genotype 1b, Table 3, 72 h incubation
CC(C)(C)OC(=O)N[C@@H](C(=O)N1CCC[C@H]1c1ncc(-c2cc(F)c(N3CCC(c4cnc([C@@H]5CCCN5C(=O)[C@H](NC(=O)OC(C)(C)C)c5ccccc5)[nH]4)CC3)c(F)c2)[nH]1)c1ccccc1 [compound 482] showed an EC50 of under 1 nM. COC(=O)N[C@@H](C(=O)N1CCC[C@H]1C(=O)NC1CCN(c2ccc(-c3cnc([C@@H]4CCCN4C(=O)[C@H](NC(=O)OC)c4ccccc4)[nH]3)cc2F)CC1)c1ccccc1 [compound 454] was tested, and the EC50 was under 1 nM. COC(=O)N[C@H](C(=O)N1CCOC[C@H]1c1ncc(-c2cc(F)c(N3CCC(c4cnc([C@@H]5CCCN5C(=O)[C@@H](NC(=O)OC)C(C)C)[nH]4)CC3)c(F)c2)[nH]1)C(C)C [compound 509] gave an EC50 of under 1 nM. For COC(=O)N[C@@H](C(=O)N1CCC[C@H]1c1ncc(-c2cc(F)c(N3CCC(c4cnc([C@@H]5CCCN5C(=O)[C@H](NC(=O)C5CC5)c5ccccc5)[nH]4)CC3)c(F)c2)[nH]1)c1ccccc1 [compound 461], the EC50 was under 1 nM. Work on COC(=O)N[C@@H](C(=O)N1CCC[C@H]1c1ncc(-c2cc(F)c(N3CCC(c4cnc([C@@H]5COCCN5C(=O)[C@H](NC(=O)C5CC5)c5ccccc5)[nH]4)CC3)c(F)c2)[nH]1)c1ccccc1 [compound 494] yielded an EC50 of under 1 nM. With COC(=O)N[C@H](C(=O)N[C@H](c1ncc(C2CCN(c3c(F)cc(-c4cnc([C@@H]5CCCN5C(=O)[C@@H](NC(=O)OC)C(C)C)[nH]4)cc3F)CC2)[nH]1)C(C)C)C(C)C [compound 515] the EC50 was under 1 nM. In the case of COC(=O)N[C@@H](C(=O)N1CCC[C@H]1c1ncc(-c2cc(F)c(N3CCC(c4cnc([C@@H]5COCCN5C(=O)[C@H](NC(=O)OC(C)(C)C)c5ccccc5)[nH]4)CC3)c(F)c2)[nH]1)c1ccccc1 [compound 489], the EC50 is reported as under 1 nM. COC(=O)N[C@@H](C(=O)N1CCCC[C@H]1c1ncc(C2CCN(c3c(F)cc(-c4cnc([C@@H]5CCCN5C(=O)[C@H](NC(=O)C5CC5)c5ccccc5)[nH]4)cc3F)CC2)[nH]1)c1ccccc1 [compound 493] showed an EC50 of under 1 nM. For CC(C)(C)OC(=O)N[C@@H](C(=O)N1CCC[C@H]1c1ncc(-c2cc(F)c(N3CCC(c4cnc([C@@H]5CCCCN5C(=O)[C@H](NC(=O)OC(C)(C)C)c5ccccc5)[nH]4)CC3)c(F)c2)[nH]1)c1ccccc1 [compound 483], the EC50 was under 1 nM. COC(=O)N[C@@H](C(=O)N1CCC[C@H]1c1ncc(-c2cc(F)c(N3CCC(c4cnc([C@@H]5CCCN5C(=O)[C@H](NC(=O)N5CCOCC5)c5ccccc5)[nH]4)CC3)c(F)c2)[nH]1)c1ccccc1 [compound 471] gave an EC50 of 1 to 9.9 nM. With CN(C)C(=O)N[C@@H](C(=O)N1CCC[C@H]1C(=O)NC1CCN(c2ccc(-c3cnc([C@@H]4CCCN4C(=O)[C@H](NC(=O)N(C)C)c4ccccc4)[nH]3)cc2F)CC1)c1ccccc1 [compound 457] the EC50 was under 1 nM. COC(=O)N[C@@H](C(=O)N1CCC[C@H]1c1ncc(-c2cc(F)c(N3CCC(c4cnc([C@@H]5CCCN5C(=O)[C@H](NS(=O)(=O)C5CC5)c5ccccc5)[nH]4)CC3)c(F)c2)[nH]1)c1ccccc1 [compound 477] gave an EC50 of under 1 nM.

Same assay, conditions: Hepatitis C virus, Huh-7, 72 h, read-out: Inhibition of HCV genotype 1b, Table 4, 72 h incubation
COC(=O)N[C@H](C(=O)N1CCC[C@H]1c1nc2ccc(-c3ccc(-c4ccc5nc([C@H](C)NC(=O)[C@@H](C(C)C)N(C)C)[nH]c5c4)cc3)cc2[nH]1)C(C)C [compound 936] showed an EC50 of under 1 nM. For COC(=O)N[C@H](C(=O)N1CCC[C@H]1c1nc2ccc(-c3ccc(-c4ccc5nc([C@@H]6CCCN6C(=O)[C@@H](NC(=O)OC)[C@@H](C)OC)[nH]c5c4)cc3)cc2[nH]1)[C@@H](C)OC [compound 555], the EC50 was under 1 nM.

Same assay, conditions: Hepatitis C virus, Huh-7, 72 h, read-out: Inhibition of HCV genotype 1b, Table 5, 72 h incubation
CNC(=O)N[C@H](C(=O)N1CCC[C@H]1c1ncc(-c2ccc(C34CCC(c5cnc([C@@H]6CCCN6C(=O)[C@@H](NC(=O)OC)C(C)C)[nH]5)(CC3)CC4)cc2)[nH]1)C(C)C [compound 2095] was tested, and the EC50 was under 1 nM. COC(=O)N[C@H](Cc1ccccc1)C(=O)N1CCC[C@H]1c1ncc(C23CCC(c4ccc(-c5cnc([C@@H]6CCCN6C(=O)[C@H](NC(=O)OC)c6ccccc6)[nH]5)cc4)(CC2)CC3)[nH]1 [compound 610] showed an EC50 of under 1 nM. With O=C(N[C@@H](C(=O)N1CCC[C@H]1c1ncc(-c2ccc(C34CCC(c5cnc([C@@H]6CCCN6C(=O)[C@H](NC(=O)C6CC6)c6ccccc6)[nH]5)(CC3)CC4)cc2)[nH]1)c1ccccc1)C1CC1 [compound 607] the EC50 was under 1 nM. Compound CCNC(=O)N[C@@H](C(=O)N1CCC[C@H]1c1ncc(C23CCC(c4ccc(-c5cnc([C@@H]6CCCN6C(=O)[C@@H](NC(=O)OC)C(C)C)[nH]5)cc4)(CC2)CC3)[nH]1)c1ccccc1 [compound 2090] has an EC50 of under 1 nM. COC(=O)N[C@H](C(=O)N1CCC[C@H]1c1ncc(C23CCC(c4ccc(-c5cnc([C@@H]6CCCN6C(=O)[C@@H](NC(=O)N6CCOCC6)C(C)C)[nH]5)cc4)(CC2)CC3)[nH]1)C(C)C [compound 645] showed an EC50 of under 1 nM. With O=C(N[C@@H](C(=O)N1CCC[C@H]1CNC(=O)C12CCC(c3ccc(-c4cnc([C@@H]5CCCN5C(=O)[C@H](NC(=O)C5CC5)c5ccccc5)[nH]4)cc3)(CC1)CC2)c1ccccc1)C1CC1 [compound 602] the EC50 was under 1 nM. COC(=O)N[C@@H](CC(C)C)C(=O)N1CCC[C@H]1c1ncc(C23CCC(c4ccc(-c5cnc([C@@H]6CCCN6C(=O)[C@@H](NC(=O)OC)C(C)C)[nH]5)cc4)(CC2)CC3)[nH]1 [compound 2065] was tested, and the EC50 was under 1 nM. CNC(=O)N[C@H](C(=O)N1CCC[C@H]1c1ncc(C23CCC(c4ccc(-c5cnc([C@@H]6CCCN6C(=O)[C@@H](NC(=O)OC)C(C)C)[nH]5)cc4)(CC2)CC3)[nH]1)C(C)C [compound 2099] was tested, and the EC50 was under 1 nM. For COC(=O)N[C@@H](C(=O)N1CCC[C@H]1c1ncc(-c2ccc(C34CCC(c5cnc([C@@H]6CCCN6C(=O)[C@H](C(C)C)N(C)C)[nH]5)(CC3)CC4)cc2)[nH]1)c1ccccc1 [compound 2063], the EC50 was under 1 nM. In the case of COC(=O)N[C@H](C(=O)N1CCC[C@H]1c1ncc(C23CCC(c4ccc(-c5cnc([C@@H]6CCCN6C(=O)[C@@H](NC6CCOCC6)C(C)C)[nH]5)cc4)(CC2)CC3)[nH]1)C(C)C [compound 914], the EC50 is reported as 10 to 999 nM. COC(=O)N[C@H](C(=O)N1CCC[C@H]1c1ncc(C23CCC(c4ccc(-c5cnc([C@@H]6CCCN6C(=O)[C@@H](NC(=O)OC6CCOCC6)C(C)C)[nH]5)cc4)(CC2)CC3)[nH]1)C(C)C [compound 2079] showed an EC50 of 1 to 9.9 nM. Compound CC(C)[C@@H](C(=O)N1CCC[C@H]1c1ncc(-c2ccc(C34CCC(c5cnc([C@@H]6CCCN6C(=O)[C@H](C(C)C)N(C)C)[nH]5)(CC3)CC4)cc2)[nH]1)N(C)C [compound 919] has an EC50 of 10 to 999 nM. CNC(=O)N[C@@H](C(=O)N1CCC[C@H]1c1ncc(-c2ccc(C34CCC(c5cnc([C@@H]6CCCN6C(=O)[C@@H](NC(=O)OC)C(C)C)[nH]5)(CC3)CC4)cc2)[nH]1)c1ccccc1 [compound 2102] showed an EC50 of under 1 nM. COC(=O)N[C@H](C(=O)N1CCC[C@H]1c1ncc(-c2ccc(C34CCC(c5cnc([C@@H]6CCCN6C(=O)[C@@H](NC(=O)OC)[C@@H](C)OC)[nH]5)(CC3)CC4)cc2)[nH]1)[C@@H](C)OC [compound 612] gave an EC50 of under 1 nM. Work on COC(=O)N[C@H](C(=O)N1CCC[C@H]1c1ncc(C23CCC(c4ccc(-c5cnc([C@@H]6CCCN6C(=O)[C@@H](NC(=O)N6CC[C@H](O)C6)C(C)C)[nH]5)cc4)(CC2)CC3)[nH]1)C(C)C [compound 651] yielded an EC50 of 1 to 9.9 nM. Work on COC(=O)N[C@H](C(=O)N1CCC[C@H]1c1ncc(-c2ccc(C34CCC(c5cnc([C@@H]6CCCN6C(=O)[C@@H](Nc6ncccn6)C(C)C)[nH]5)(CC3)CC4)cc2)[nH]1)C(C)C [compound 918] yielded an EC50 of under 1 nM. Work on COC(=O)N[C@H](C(=O)N1CCC[C@H]1c1ncc(C23CCC(c4ccc(-c5cnc([C@@H]6CCCN6C(=O)[C@@H](NC(=O)N6CCCCC6)C(C)C)[nH]5)cc4)(CC2)CC3)[nH]1)C(C)C [compound 648] yielded an EC50 of 10 to 999 nM. In the case of COC(=O)N[C@H](C(=O)N[C@@H](C)c1ncc(-c2ccc(C34CCC(c5cnc([C@@H]6CCCN6C(=O)[C@H](NC(=O)OC)c6ccccc6)[nH]5)(CC3)CC4)cc2)[nH]1)C(C)C [compound 2083], the EC50 is reported as under 1 nM.

Same assay, conditions: read-out: Inhibition of HCV genotype 1b, Table 5, 72 h incubation
COC(=O)N[C@@H](C(=O)N1CCC[C@H]1c1ncc(-c2ccc(C34CCC(c5cnc([C@@H]6CCCN6C(=O)[C@@H](NC(=O)N6CCN(C)CC6)C(C)C)[nH]5)(CC3)CC4)cc2)[nH]1)c1ccccc1 [compound 642] gave an EC50 of 1 to 9.9 nM.
